5 compounds from patent US4710497A, “Method for percutaneously administering physiologically active agents” (Nitto Electric Industrial Co., Ltd., priority 1985, dated 1987) can be followed below.

The text on data set [1]: Rat full thickness skins were used in the following two types of diffusion cell methods.
The skin was excised from the shaved abdominal site of deceased male albino rats weighing 250~300 g, and washed with normal saline solution after the subcutaneous fat was carefully removed with scissors.
Probl. Dermatol., Vol. 7, p. […] The rat skin was mounted horizontally in a diffusion cell apparatus; the exposed area of the skin approximated 0.7 cm^2.
The active agent/PEAC solution of known concentration was added to the upper compartment of the cell, which was exposed to the epithelial side of the skin and a normal saline solution was placed in the lower compartment.
The penetration rate was studied in a thermostated bath at 30° C.
(§1) In all instances the in vitro diffusion cell technique or the in vivo rhesus monkey test earlier described were used. In all instances analysis was by conventional HPLC (high pressure liquid chromatography). Details and citations are given for illustrative techniques.
Detection was in a conventional manner via HPLC using a mobile phase of 70% A (0.5 acetic acid (v/v) with 1.0 g/l sodium pentane sulfonate) and 30% B (90% acetonitrile and 10% H2 O (v/v) with 1.0 g/l sodium pentane sulfonate); the columnn was ASI C18 300×3.9 mm and the flow rate was 2 ml/min by UV at 267 nm.
This is another data set of the same source.

Data set [2] is described as follows: Pharmacological (behavioral) signs after percutaneous diazepam in animal models, e.g. rhesus monkey. The data set is classed as in vivo. As to conditions: percutaneous administration, blood level of approximately 100 ng/ml.
Data set [3] can be described thus: in vivo. Particulars: rhesus monkey, topical or ocular, In Vivo - Monkey Plasma, 200 mg on 49 cm^2, 25% ethyl laurate in N-methyl pyrrolidone. As for the experimental part:
Male rhesus monkeys weighing 10-14 Kg each were used as the subject. An appropriate area of the monkey's chest was shaved 24 hours before drug application.
Drug formulations comprising the PEAC were applied to a certain area of the chest as indicated in each example. The monkey was restrained in a chair to prevent it from touching its chest.
Blood samples were taken at appropriate intervals after the application. The heparinized blood was centrifuged, and the plasma was removed and stored at -20° C. until analyzed. […]
To this solution was added 120 mg of Klucel® (cross-linked hydroxypropylcellulose type HF, Hercules Inc.) and the same stirred thoroughly to obtain a uniform gel.
1.0 ml of the gel was applied to 49 cm^2 of the chest area of the monkey; the applied area was left open to the air for the duration of the experiment.
as §1
To this solution was added 120 mg of hydroxypropylcellulose (Klucel® HF). […]

Setting [4] is: Comparative Composition B: active agent 3 g in 97 g dimethyl propionamide.
[5] abbreviates: Comparative Composition C: active agent 3 g in 97 g acetone, acetone evaporated off.
The mark [6] stands for this setting: Composition A: active agent 3 g in 97 g of 25 volume % isopropyl myristate in dimethyl propionamide.
The mark [7] stands for this setting: 2 hrs, I: 25 mg drug + 25% isopropyl myristate in N-methyl pyrrolidone.
Setting [8] is: 2 hrs, II: 25 mg drug + 25% isopropyl myristate in N-methyl piperidone.
[9] abbreviates: 2 hrs, III: 25 mg drug + 25% isopropyl myristate in N-methyl caprolactam.
[10] abbreviates: 2 hrs, IV: 25 mg drug + 25% ethyl laurate in N-methyl pyrrolidone.
Setting [11] is: 4 hrs, I: 25 mg drug + 25% isopropyl myristate in N-methyl pyrrolidone.
The mark [12] stands for this setting: 4 hrs, II: 25 mg drug + 25% isopropyl myristate in N-methyl piperidone.
Setting [13] is: 4 hrs, III: 25 mg drug + 25% isopropyl myristate in N-methyl caprolactam.
The mark [14] stands for this setting: 4 hrs, IV: 25 mg drug + 25% ethyl laurate in N-methyl pyrrolidone.
The mark [15] stands for this setting: 6 hrs, I: 25 mg drug + 25% isopropyl myristate in N-methyl pyrrolidone.
Setting [16] is: 6 hrs, II: 25 mg drug + 25% isopropyl myristate in N-methyl piperidone.
The mark [17] stands for this setting: 6 hrs, III: 25 mg drug + 25% isopropyl myristate in N-methyl caprolactam.
[18] abbreviates: 6 hrs, IV: 25 mg drug + 25% ethyl laurate in N-methyl pyrrolidone.
[19] abbreviates: 8 hrs, I: 25 mg drug + 25% isopropyl myristate in N-methyl pyrrolidone.
The mark [20] stands for this setting: 8 hrs, II: 25 mg drug + 25% isopropyl myristate in N-methyl piperidone.
Setting [21] is: 8 hrs, III: 25 mg drug + 25% isopropyl myristate in N-methyl caprolactam.
Setting [22] is: 8 hrs, IV: 25 mg drug + 25% ethyl laurate in N-methyl pyrrolidone.

Molecules are shown by their SMILES. Like-named read-outs stand apart in the source and are kept apart here. Some results are limits rather than exact numbers.

In the case of `CC(C)Cc1ccc(C(C)C(=O)O)cc1` (stereo not drawn) [Ibuprofen, p-isobutylhydratropic acid], the flux under setting [4] stood at 835 μg/cm^2 /24 hrs; the flux under setting [5] was found to be 242 μg/cm^2 /24 hrs; the flux under setting [6] was 1085 μg/cm^2 /24 hrs; the flux in data set [1] (setting [7]) was found to be 154.0 μg/cm^2 /hr; the flux in data set [1] (setting [8]) came to 142.0 μg/cm^2 /hr; the flux in data set [1] (setting [9]) is listed as 33.3 μg/cm^2 /hr. For the same compound, the flux is 192.8 μg/cm^2 /hr in data set [1] (setting [10]); 95.6 μg/cm^2 /hr in data set [1] (setting [11]); 79.2 μg/cm^2 /hr in data set [1] (setting [12]); 90.7 μg/cm^2 /hr in data set [1] (setting [13]); 93.0 μg/cm^2 /hr in data set [1] (setting [14]); 53.9 μg/cm^2 /hr in data set [1] (setting [15]). The flux in data set [1] (setting [16]) is given as 46.1 μg/cm^2 /hr; in data set [1] (setting [17]), 76.4 μg/cm^2 /hr; in data set [1] (setting [18]) it was 47.5 μg/cm^2 /hr; in data set [1] (setting [19]), 49.6 μg/cm^2 /hr; in data set [1] (setting [20]) it was 40.4 μg/cm^2 /hr; in data set [1] (setting [21]) it was 63.2 μg/cm^2 /hr. In data set [1] (setting [22]), the flux came out at 40.0 μg/cm^2 /hr.

With `CN1C(=O)CN=C(c2ccccc2)c2cc(Cl)ccc21` [Diazepam, 7-Chloro-1,3-dihydro-1-methyl-5-phenyl-2H-1,4-benzodiazepine-2-one], in data set [2], the “pharmacological (behavioral) signs” value is “produces pharmacological (behavioral) signs of therapeutic effectiveness”.

Take `COC(=O)C1=C(C)NC(C)=C(C(=O)OC)C1c1ccccc1[N+](=O)[O-]` [Nifedipine]: the flux is listed as less than 2 μg/cm^2 /hr in data set [1] (2 hrs, V (control): 25 mg drug in 1 ml N-methyl pyrrolidone); 2.7 μg/cm^2 /hr in data set [1] (4 hrs, V (control): 25 mg drug in 1 ml N-methyl pyrrolidone); 8.1 μg/cm^2 /hr in data set [1] (6 hrs, V (control): 25 mg drug in 1 ml N-methyl pyrrolidone); 3.9 μg/cm^2 /hr in data set [1] (8 hrs, V (control): 25 mg drug in 1 ml N-methyl pyrrolidone).

As for `COc1ccc2c(c1)c(CC(=O)O)c(C)n2C(=O)c1ccc(Cl)cc1` [Indomethacin, 1-(p-chlorobenzoyl)-5-methoxy-2-methylindole-3-acetic acid], the concentration at 1 h in data set [3] (1 hour) was 370 ng/mL. This compound gave a concentration at 2 h in data set [3] (2 hours) of 505 ng/mL. Besides, in data set [3] (3 hours), the concentration at 3 h came out at 420 ng/mL. The concentration at 5 h in data set [3] (5 hours as printed) was found to be 110 ng/mL; in data set [3] (5 hours), 225 ng/mL. The flux under setting [4] is recorded as 150 μg/cm^2 /24 hrs; the flux under setting [5] stood at 30 μg/cm^2 /24 hrs; the flux under setting [6] amounted to 394 μg/cm^2 /24 hrs; the flux in data set [1] (setting [7]) is on record as 65.1 μg/cm^2 /hr; the flux in data set [1] (setting [8]) is reported as 55.7 μg/cm^2 /hr; the flux in data set [1] (setting [9]) is 11.3 μg/cm^2 /hr. In addition, the flux was found to be 89.5 μg/cm^2 /hr in data set [1] (setting [10]); 39.0 μg/cm^2 /hr in data set [1] (setting [11]); 49.3 μg/cm^2 /hr in data set [1] (setting [12]); 56.8 μg/cm^2 /hr in data set [1] (setting [13]); 63.7 μg/cm^2 /hr in data set [1] (setting [14]); 21.5 μg/cm^2 /hr in data set [1] (setting [15]). For the same compound, the flux in data set [1] (setting [16]) was 29.3 μg/cm^2 /hr; in data set [1] (setting [17]) it was 41.3 μg/cm^2 /hr; in data set [1] (setting [18]), 23.0 μg/cm^2 /hr; in data set [1] (setting [19]), 13.2 μg/cm^2 /hr; in data set [1] (setting [20]) it was 15.1 μg/cm^2 /hr; in data set [1] (setting [21]), 21.8 μg/cm^2 /hr. The flux in data set [1] (setting [22]) came out at 13.9 μg/cm^2 /hr.

As to `O=C(O)c1ccccc1Nc1cccc(C(F)(F)F)c1` [flufenamic acid, N-(3'-trifluoro-methylphenyl)-anthranilic acid], the flux by setting is: under setting [4], 311 μg/cm^2 /24 hrs; under setting [5], 26 μg/cm^2 /24 hrs; under setting [6], 598 μg/cm^2 /24 hrs.
